Reference: US20110104300A1, “Methods for Screening Chemical, Biological, and Physical Agents for Disinfecting Infectious Norovirus” (KIM LABORATORIES, INC., priority 2009, published 2011)

Assays:
[1] = tested on: Norovirus; assay: Suspension testing: Norovirus-positive stool in suspension, test agent, PBST neutralization, IMS bead capture, qRT-PCR; design: species or system human; settings: for antiviral activity against Norovirus (in words): nanosilver at any concentration tested, alcohol up to 70%; for Log Reduction: Suspension
[2] = tested on: Human Norovirus; assay: Hard surface testing: Norovirus-positive stool dried on surface, test agent, PBST neutralization, IMS bead capture, qRT-PCR
Description: For this method, a Norovirus-positive human stool sample was allowed to dry on the surface of a material. A sterilized surface material (e.g., stainless steel, ceramic, porcelain, or fabric, etc.), in this case a round stainless steel plate, was placed into the center of a sterile deep Petri dish. 20 μl of Norovirus-positive human stool sample was added to the center of the stainless steel plate. The stool sample was dried onto the surface of the material for 30 minutes at room temperature.
100 μl of a test agent (e.g., a chemical disinfectant) was added on top of the dried stool sample. 100 μl of a neutral buffer, phosphate buffered saline-TWEEN® 20 (polysorbate) (PBST), was used as a negative control (in place of the test agent). 100 μl of 20% household bleach, (10500 ppm sodium hypochlorite, prepared fresh) was used as a positive control (in place of the test agent). The sample and the test agent, neutral buffer, and either 20% household bleach or 10500 ppm sodium hypochlorite were incubated at room temperature for as short as one minute to as long as 60 minutes.
40 ml of PBST was added over the surface to fully submerge the surface material and to dislodge the entire dried stool sample. 40 ml PBST acts as a neutralizer for the test compound by dilution. If necessary, the dried stool sample was scraped with the end of a sterile pipette tip. The mixture was shaken for 15 minutes (at ˜150 rpm) in an orbital shaker at room temperature.
The supernatant is transferred to a 50 ml screw cap centrifuge tube (or similar container). 10-100 μl of Norovirus specific antibody conjugated IMS beads were added, and the resulting mixture was incubated for 1-2 hours with end over rotation (5-10 RPM). The Norovirus specific antibody was monoclonal antibody P2B2 (Kim Laboratories, Inc., Rantoul, Ill.). A tube was placed in a magnetic stand for 15 minutes to capture the IMS beads. The supernatant was removed, with care being taken not to dislodge the IMS beads. […]

For `O=S(=O)([O-])O[O-].[K+].[K+]` [potassium peroxymonosulfate], the “antiviral activity against Norovirus (in words)” value ([1]; Suspension testing) was “ineffective”.
For `CC(O)C(=O)O` (centres unmarked) [lactic acid], the “antiviral activity against Norovirus (in words)” value ([1]; Suspension testing) was “ineffective”.
With `OCl` [Sodium Hypochlorite] the “Norovirus disinfection (in words)” value ([1]; Suspension testing, bleach dilution more than 2-3 weeks old, data not shown) was “not effective”, the “antiviral activity against Norovirus (in words)” value ([1]; Suspension testing) was “showed antiviral activity” and the “Log Reduction” value ([1]; 20% of household bleach by Clorox brand) was >5 log. The “Log Reduction” value ([2]; Hard surface (porcelain tile), 20% of household bleach by Clorox brand) was >5 log, the “Norovirus disinfection (in words)” value ([2]; Hard surface testing, bleach dilution more than 2-3 weeks old) was “not effective” and the “antiviral activity against Human Norovirus (in words)” value ([2]; Hard surface testing, nanosilver at any concentration tested) was “showed antiviral activity”.
With `CCO` [Ethanol solution, Ethanol] the “Log Reduction” value ([1]; 70%) was 1.3 log.
In the case of `O=C(O)CC(O)(CC(=O)O)C(=O)O` [Citric Acid Solution, Citric Acid], the “antiviral activity against Norovirus (in words)” value ([1]; Suspension testing) is reported as “ineffective” and the “Log Reduction” value ([1]; 0.6%) is reported as 1.26 log.
For `CCO` [alcohol], the “antiviral activity against Norovirus (in words)” value ([1]; Suspension testing) was “ineffective”.
In the case of Povidone Iodine, the “Log Reduction” value ([1]; 5%) is reported as 1.1 log.
With `OO` [hydrogen peroxide] the “antiviral activity against Norovirus (in words)” value ([1]; Suspension testing) was “ineffective”.
